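The concentration for 50% growth inhibition is given as GI50. TGI: concentration producing complete growth inhibition.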
Legend:
Assay in all cases: NCI-60 cell line screen, 384-well format
[1] = tested on: 786-0 renal
[2] = tested on: UO-31 renal
[3] = tested on: LOX IMVI melanoma
[4] = tested on: NCI-H522 lung
[5] = tested on: IGROV1 ovarian
[6] = tested on: SNB-75 CNS
[7] = tested on: OVCAR-5 ovarian
[8] = tested on: BT-549 breast
[9] = tested on: HOP-62 NSCLC
[10] = tested on: EKVX NSCLC
[11] = tested on: SF-539 CNS
[12] = tested on: UACC-257 melanoma
[13] = tested on: SK-MEL-28 melanoma
[14] = tested on: SK-OV-3 ovarian
[15] = tested on: RPMI-8226 leukemia
[16] = tested on: NCI/ADR-RES ovarian
[17] = tested on: HS 578T breast
[18] = tested on: OVCAR-8 ovarian
[19] = tested on: CCRF-CEM leukemia
[20] = tested on: NCI-H23 lung
[21] = tested on: HL-60(TB) leukemia
[22] = tested on: HOP-92 NSCLC
[23] = tested on: PC-3 prostate
[24] = tested on: A549 NSCLC
[25] = tested on: SNB-19 CNS
[26] = tested on: HCT-116 colon
[27] = tested on: RXF 393 renal
[28] = tested on: HT29 colon
[29] = tested on: HCC-2998 colon
[30] = tested on: DU-145 prostate
[31] = tested on: K-562 leukemia
[32] = tested on: NCI-H322M lung
[33] = tested on: HCT-15 colon
[34] = tested on: M14 melanoma
[35] = tested on: CAKI-1 renal
[36] = tested on: SN12C renal
[37] = tested on: COLO 205 colon
[38] = tested on: MALME-3M melanoma
[39] = tested on: MDA-MB-468 breast
[40] = tested on: OVCAR-3 ovarian
[41] = tested on: MCF7 breast
[42] = tested on: KM12 colon
[43] = tested on: SF-295 CNS
[44] = tested on: SF-268 CNS
[45] = tested on: MDA-MB-435 melanoma
[46] = tested on: MOLT-4 leukemia
[47] = tested on: NCI-H460 NSCLC
[48] = tested on: TK-10 renal
[49] = tested on: SW-620 colon
[50] = tested on: UACC-62 melanoma
[51] = tested on: T-47D breast
[52] = tested on: ACHN renal
[53] = tested on: MDA-MB-231 breast
[54] = tested on: A498 renal
[55] = tested on: SK-MEL-5 melanoma
[56] = tested on: U251 glioblastoma
[57] = tested on: OVCAR-4 ovarian
[58] = tested on: NCI-H226 lung

Compound: CCOC(=O)C(Cc1ccc(CCCC(=O)NCCC(=O)Nc2ccc3nc(C)sc3c2)cc1)C(=O)OCC
- GI50 [1]: 26.7 µM
- TGI [1]: 75 µM
- GI50 [2]: 22.9 µM
- TGI [2]: 48.7 µM
- GI50 [3]: 16.8 µM
- TGI [3]: 30.8 µM
- GI50 [4]: 20.5 µM
- TGI [4]: 37.1 µM
- GI50 [5]: 26.2 µM
- TGI [5]: 51.9 µM
- GI50 [6]: 19.7 µM
- TGI [6]: 35.8 µM
- GI50 [7]: > 100 µM
- TGI [7]: > 100 µM
- GI50 [8]: 19.2 µM
- TGI [8]: 33.8 µM
- GI50 [9]: 17.2 µM
- TGI [9]: 35.9 µM
- GI50 [10]: 27.7 µM
- TGI [10]: 69.6 µM
- GI50 [11]: 18.7 µM
- TGI [11]: 32.8 µM
- GI50 [12]: 19 µM
- TGI [12]: 33.1 µM
- GI50 [13]: 26.6 µM
- TGI [13]: 51.7 µM
- GI50 [14]: 22.6 µM
- TGI [14]: 46.8 µM
- GI50 [15]: 17.7 µM
- TGI [15]: 31.7 µM
- GI50 [16]: 17.9 µM
- TGI [16]: 31.9 µM
- GI50 [17]: 19.8 µM
- TGI [17]: 34.5 µM
- GI50 [18]: 18.1 µM
- TGI [18]: 32 µM
- GI50 [19]: 17.5 µM
- TGI [19]: 31.4 µM
- GI50 [20]: 19.7 µM
- TGI [20]: 37.2 µM
- GI50 [21]: 23 µM
- TGI [21]: 37.6 µM
- GI50 [22]: 25.8 µM
- TGI [22]: 68.2 µM
- GI50 [23]: 19.4 µM
- TGI [23]: 33.9 µM
- GI50 [24]: 23.3 µM
- TGI [24]: 59.1 µM
- GI50 [25]: 63.1 µM
- TGI [25]: > 100 µM
- GI50 [26]: 25.9 µM
- TGI [26]: 62.8 µM
- GI50 [27]: 21.8 µM
- TGI [27]: 48.3 µM
- GI50 [28]: 21.3 µM
- TGI [28]: 42.5 µM
- GI50 [29]: 10.2 µM
- TGI [29]: 35.6 µM
- GI50 [30]: 19.8 µM
- TGI [30]: 34.9 µM
- GI50 [31]: 14 µM
- TGI [31]: 33.6 µM
- GI50 [32]: 19.4 µM
- TGI [32]: 38.3 µM
- GI50 [33]: 23.1 µM
- TGI [33]: 47.9 µM
- GI50 [34]: 19.3 µM
- TGI [34]: 37 µM
- GI50 [35]: 18.4 µM
- TGI [35]: 33.1 µM
- GI50 [36]: 24.7 µM
- TGI [36]: 48.4 µM
- GI50 [37]: 21.1 µM
- TGI [37]: 40.3 µM
- GI50 [38]: 22.5 µM
- TGI [38]: 45.7 µM
- GI50 [39]: 12 µM
- TGI [39]: 25.6 µM
- GI50 [40]: 21.9 µM
- TGI [40]: 40.4 µM
- GI50 [41]: 16.7 µM
- TGI [41]: 32.5 µM
- GI50 [42]: 18.8 µM
- TGI [42]: 37.3 µM
- GI50 [43]: 35.4 µM
- TGI [43]: > 100 µM
- GI50 [44]: 17.7 µM
- TGI [44]: 38.3 µM
- GI50 [45]: 23.5 µM
- TGI [45]: 41.2 µM
- GI50 [46]: 13 µM
- TGI [46]: 25.7 µM
- GI50 [47]: 19.2 µM
- TGI [47]: 35.9 µM
- GI50 [48]: 30.4 µM
- TGI [48]: 83.9 µM
- GI50 [49]: 55.2 µM
- TGI [49]: > 100 µM
- GI50 [50]: 19.1 µM
- TGI [50]: 33.6 µM
- GI50 [51]: 8.21 µM
- TGI [51]: 20.4 µM
- GI50 [52]: 18 µM
- TGI [52]: 31.9 µM
- GI50 [53]: 21.1 µM
- TGI [53]: 48.1 µM
- GI50 [54]: 27.7 µM
- TGI [54]: 64.1 µM
- GI50 [55]: 14.1 µM
- TGI [55]: 27.1 µM
- GI50 [56]: 37.6 µM
- TGI [56]: > 100 µM
- GI50 [57]: 32.5 µM
- TGI [57]: 72 µM
- GI50 [58]: 17.1 µM
- TGI [58]: 32.1 µM

Source: PubChem BioAssay (NCI)
